In article PMC8484864 (Peptides, 2021):
“Also recorded” adds a separate entry of the source.

How the values were obtained:
apelin receptor = settings: SAR study of short ELA fragments; cited from earlier work
rat plasma in vitro = settings: cited from earlier work
furin = test: buffer-based ELA-32 digestion study; settings: cited from earlier work
[1] = human plasma, pooled from four healthy human donors; settings: 37 °C, up to 240 min
[2] = human kidney homogenised in 50 mM HEPES solution, pH 7.4; settings: 37 °C, up to 120 min

Row | Sequence | binding to the apelin receptor (in words) (apelin receptor) | fragment found (rat plasma in vitro) | fragment found (furin) | cleaved bond [1] | fragment found [2]
1 | LHSRVPFP [ELA-8, ELA-32 fragment from loss of N-terminal amino acids] | completely lost its ability to bind the apelin receptor |  |  |  | 
2 | QRPVNLTMRRKLRKHNCLQRRCMPLHSRVPFP |  | ELA-22; also recorded: ELA-32(1-9) | ELA-11 | R-R and L-R, major, 60 min and R-K, first_seen, within 2 min and H-N, major, 60 min and Arg21-Cys22, major, 60 min and proline-phenylalanine | ELA-23, earliest time points; also recorded: ELA-17, 60 min
